Patent US10654859B2, “Methanesulfonate polymorph of 5-type phosphodiesterase inhibitor and preparation method and applications thereof” (JINAN MEILUWEI BIOTECHNOLOGY CO., LTD., priority 2017, dated 2020)

Assay: Solubility test (Chinese Pharmacopoeia 2010 criteria)
Type: physicochemical
Conditions: 25° C.±2° C.; for solubility in 95% ethanol (pharmacopoeia term) / solubility in water (pharmacopoeia term): observed within 30 minutes
Method: The regulations on solubility in the guide to the second volume of Chinese Pharmacopoeia 2010 edition are used as criteria.
Weigh samples ground to fine powder (sample B: the compound of formula A; sample C: the methanesulfonate polymorph of the compound of formula A prepared in Embodiment 1), put the samples into a certain volume of solvent at 25° C.±2° C., and vigorously shake the samples for 30 seconds every 5 minutes; observe the dissolution within 30 minutes, wherein if solute particles are not observed, the samples are completely dissolved.

| SMILES | amount of 95% ethanol in which 1 g of sample is dissolved | solubility in 95% ethanol (pharmacopoeia term) | amount of water in which 1 g of sample is dissolved | solubility in water (pharmacopoeia term) |
| --- | --- | --- | --- | --- |
| CCCc1nn(C)c2c(=S)[nH]c(-c3cc(C(=S)N4CCN(C)CC4)ccc3OCC)nc12 [sample B, 5-[2-ethoxy-5-(4-methylpiperazin-1-ylthiocarbonyl)phenyl]-1-methyl-3-n-propyl-1,6-dihydro-pyrazolo[4,3-d]pyrimidin-7-thione] | > 10000 g | almost insoluble | > 10000 g | hardly soluble |
| CCCc1nn(C)c2c(=S)[nH]c(-c3cc(C(=S)N4CCN(C)CC4)ccc3OCC)nc12 [sample C, 5-[2-ethoxy-5-(4-methylpiperazin-1-ylthiocarbonyl)phenyl]-1-methyl 3-n-propyl-1,6-dihydro-pyrazolo[4,3-d]pyrimidin-7-thione methanesulfonate polymorph] | ≤ 90 g | slightly soluble | ≤ 800 g | slightly soluble |
